# Laboratory results as given in US5424185A, “Human high-affinity neurotransmitter uptake system” (Baylor College of Medicine, priority 1990, dated 1995).
# Where “and” joins values, the source holds several entries; their conditions need not be identical. Identical values can stand only once. Like-named read-outs stand apart in the source and are kept apart here.
# What was measured:
# [1] = tested on: GABA transporter (L-GAB1 cells); experiment: [3H]GABA uptake by L-GAB1 cells; assay type: cell-based, human
# Experimental: Using concentrations of [^3 H] GABA ranging from 2 to 500 μM, the kinetic profile of GABA uptake was determined for both L-GAB1 and L-M cells. The initial velocity of GABA uptake was measured and plotted against the corresponding [^3 H] GABA concentration for both cell lines. […] The velocity profile for L-GAB1 cells was subtracted by that of L-M cells, and the resulting data used for a double-reciprocal plot of velocity-^1 against GABA concentration-^1. The velocity profile for L-M cells was also transformed into a double-reciprocal plot.
# Several known inhibitors of high-affinity GABA uptake were used to examine their efficacies in inhibiting [^3 H] GABA uptake by L-GAB1 cells. […] Each of these agents was used at several concentrations ranging from 1 to 100 μM in assays of [^3 H] GABA uptake by L-GAB1 cells. […] GABA uptake by L-GAB1 cells.
# L-GAB1 cells were also analyzed in terms of their ligand-specificity in the high-affinity GABA uptake mechanism.
# L-M cells [2] = details: 2 to 500 μM [3H]GABA, low-affinity system
# [3] = tested on: neuronal and glial GABA uptake systems in the CNS; details: literature; read-out: Km of high-affinity GABA transport systems in the CNS; cited from earlier work
# [4] = molecular target: T1, human 5HT transporter (L-S1 cells) (Homo sapiens, UniProt P31645); experiment: [3H]-5-HT uptake by L-S1 cells; assay type: cell-based
# T1 construct: expressed in transfected cells; host or cells: mouse L-M fibroblasts (ATCC CCL 1.2) transfected with total human genomic DNA and pSV2neo; clone L-S1
# Experimental: The cells were incubated at 37° C. for an additional 40 min.
# L-S1 and L-M cells were preplated into 96-well culture plates. For uptake assays, the growth medium was removed from each well and the cells rinsed several times with oxygenated Ringer's buffer supplemented with 0.5 mM pargyline and 0.5 mM ascorbate. […] […] […] The cells remaining in the wells were lysed with 1% sodium dodecyl sulphate (SDS) and transferred to counting vials containing 5 ml of ACS scintillant (Amersham), for liquid scintillation spectrometry. For each assay, 6-8 parallel sets of wells were assayed simultaneously.
# (§1) Non-specific activity was determined from parallel assays carried out at 0° C. Initial velocities were calculated in terms of pmol/mg protein/min by subtracting velocity values obtained at 0° C. from those obtained at 37° C.
# (§2) Cells were assayed in the presence of each inhibitor for 40 minutes at 37° C., washed with Ringer's buffer and prepared for counting as previously described. Five confluent wells were assayed at each inhibitor concentration. The IC50 value for each inhibitor was determined by plotting the percent activity against the logarithm of inhibitor concentration. Measured levels of uptake in the presence of inhibitors were expressed as the percentage of maximal uptake (100 %) in the absence of inhibitor.
# [5] = molecular target: T2, human 5HT transporter (L-S2 cells) (Homo sapiens, UniProt P31645); experiment: [3H]-5-HT uptake by L-S2 cells; assay type: cell-based
# T2 construct: expressed in transfected cells; host or cells: mouse L-M fibroblasts (ATCC CCL 1.2) transfected with total human genomic DNA and pSV2neo; clone L-S2
# Experimental: (§3) L-S1 and L-M cells were preplated into 96-well culture plates. For uptake assays, the growth medium was removed from each well and the cells rinsed several times with oxygenated Ringer's buffer supplemented with 0.5 mM pargyline and 0.5 mM ascorbate. […] The radioligand was added to a final concentration of 0.1 μM and incubated with the cells at 37° C. for 40 minutes. The incubation mixture was then removed and each well was washed three times at room temperature with Ringer's buffer. The cells remaining in the wells were lysed with 1% sodium dodecyl sulphate (SDS) and transferred to counting vials containing 5 ml of ACS scintillant (Amersham), for liquid scintillation spectrometry. For each assay, 6-8 parallel sets of wells were assayed simultaneously.
# as §1, §2
# L-M cells [6] = experiment: [3H]-5-HT uptake by untransfected L-M cells; assay type: cell-based, mouse
# Experimental: as §3, with “For each assay, 6-8 parallel sets of wells were assayed simultaneously.” left out
# as §1
# as §2, with “Five confluent wells were assayed at each inhibitor concentration.” left out
# Purified Synaptosomes = details: literature value, reference printed beside it; read-out: Representative IC50, Purified Synaptosomes; cited from earlier work
# Synaptosomes = details: literature values; read-out: Representative IC50, Synaptosomes; cited from earlier work
# [7] = tested on: Cultured Astrocytes (rat); details: read-out: Representative IC50, Cultured Astrocytes (rat); literature values; cited from earlier work
# Rabbit Platelets = details: read-out: Representative IC50, Rabbit Platelets; literature value; cited from earlier work
# [8] = tested on: human glycine transporter (L-GLY2 cells)
# Experimental: The incubation was conducted for 40 min at 37° C. Each well was washed three times at room temperature with excess Ringer's buffer and then incubated with 50 μl of alkaline phosphatase buffer (100 mM Tris, pH 9.5, 100 mM NaCl, 10 mMMgCl2, 20 μg/ml saponin, 3.2 mg/ml p-nitrophenyl phosphate) for 1-2 hours at 37° C. The phosphatase assay was used as a relative assessment of cell number, and used to normalize the level of [^3 H]glycine associated with each well as described above. The phosphatase reading for each assayed well was plotted versus its corresponding level of [^3 H]glycine-retention.
# (§4) L-GLY2 and L-M cells were assayed for the uptake of [^3 H] glycine (0.1 μM) in the presence or absence of competing, unlabelled amino acids or neurotransmitters. Each competing ligand was present in 1000-fold molar excess (100 μM) of the [^3 H] glycine. […] The assays were performed at 37° C. for 40 minutes. Alanine, proline and serine, each at 1 mM, was added to the Ringer's buffer for all assays.
# (§5) At each concentration of [^3 H] glycine used, both uptake levels were converted to picomole-equivalents of [^3 H] glycine, then normalized by both length of assay and corresponding protein contents to arrive at the uptake velocity values. The nonspecific uptake velocity was then subtracted from the total uptake velocity to yield the specific uptake velocity. The specific uptake velocities and their corresponding [^3 H] glycine concentrations were analyzed by both Michaelis-Menten and Lineweaver-Burk transformations of the resulting kinetic profiles. For both analyses, data-points were fitted to either linear or logarithmic functions by computerized algorithms.
# L-M cells [9] = details: ligand 100 μM (1000-fold excess), 0.1 μM [3H]glycine, 40 min, 37° C.
# Experimental: as §4, §5
# goldfish retina = details: tissue, published value, cited from earlier work
# monkey retina = details: tissue, published value, cited from earlier work
# frog retina = details: read-out: Km, frog retina; tissue, published value; cited from earlier work
# [10] = tested on: human brain (post-mortem); details: membrane preparation, published value, cited from earlier work
# C6 glioblastoma = details: read-out: Km, C6 glioblastoma; membrane preparation, published value; cited from earlier work
# frog brain = details: membrane preparation, published value, cited from earlier work
# frog spinal cord = details: membrane preparation, published value, cited from earlier work
# rat brain = details: membrane preparation, published value, cited from earlier work
# rat spinal cord = details: membrane preparation, published value, cited from earlier work
# chicken brain = details: membrane preparation, published value, cited from earlier work
# chicken spinal cord = details: membrane preparation, published value, cited from earlier work
# mouse cerebral cortex = details: membrane preparation, published value, cited from earlier work
# [11] = tested on: mouse pons-medulla-spinal cord; details: membrane preparation, published value, cited from earlier work
# Y79 retinoblastoma = details: cell, published value, cited from earlier work
# T2 sequence (P31645 whole entry): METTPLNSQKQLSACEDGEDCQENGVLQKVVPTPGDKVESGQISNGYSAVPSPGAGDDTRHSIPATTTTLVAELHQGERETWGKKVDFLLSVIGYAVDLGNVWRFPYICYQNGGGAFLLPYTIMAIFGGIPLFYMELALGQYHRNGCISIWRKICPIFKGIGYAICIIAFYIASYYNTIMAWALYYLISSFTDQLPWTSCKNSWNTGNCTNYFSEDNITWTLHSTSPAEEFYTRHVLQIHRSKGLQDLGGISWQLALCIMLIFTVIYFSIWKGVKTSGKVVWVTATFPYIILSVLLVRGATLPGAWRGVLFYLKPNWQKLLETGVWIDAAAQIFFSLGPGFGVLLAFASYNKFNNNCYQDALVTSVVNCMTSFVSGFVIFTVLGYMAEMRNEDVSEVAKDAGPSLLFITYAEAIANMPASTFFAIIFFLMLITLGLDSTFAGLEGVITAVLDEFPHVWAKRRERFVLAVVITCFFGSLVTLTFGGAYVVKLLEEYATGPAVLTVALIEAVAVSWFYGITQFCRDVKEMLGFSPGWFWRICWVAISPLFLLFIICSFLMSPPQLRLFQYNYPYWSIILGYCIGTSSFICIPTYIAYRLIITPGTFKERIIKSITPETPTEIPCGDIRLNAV
# T1 sequence (P31645 whole entry): as above
smiles,measurement,setting,value
"NCCCC(=O)O [GABA, γ-aminobutyric acid]","transport Vmax of GABA, additional component in L-GAB1 cells","[1]; 2 to 500 μM [3H]GABA, L-M profile subtracted",2.4 pmol/min/mg protein
same,Km,"[1]; 2 to 500 μM [3H]GABA, L-M profile subtracted, read-out: transport Km of GABA, additional component in L-GAB1 cells",110 µM
same,"transport Vmax of GABA, system common to L-M and L-GAB1, L-GAB1 cells","[1]; 2 to 500 μM [3H]GABA, low-affinity system",2.1 pmol/min/mg protein
same,Km,"[1]; 2 to 500 μM [3H]GABA, low-affinity system, read-out: transport Km of GABA, system common to L-M and L-GAB1, L-GAB1 cells",697 µM
same,"transport Vmax of GABA, L-M cells",L-M cells [2],2.1 pmol/min/mg protein
same,Km,"L-M cells [2]; read-out: transport Km of GABA, L-M cells",697 µM
same,Km,[3],< 25 µM and 50 to 100 µM
"CN(C)CCCN1c2ccccc2CCc2ccccc21 [Imipramine, imipramine]","effect of competing ligand on [3H]-5HT uptake, L-S1",[4],significantly inhibited
same,"effect of competing ligand on [3H]-5HT uptake, L-S2",[5],significantly inhibited
same,"mechanism of inhibition of 5-HT uptake, L-S2",[5],competitive inhibition
same,effect on 5-HT uptake activity of untransfected L-M cells,L-M cells [6],unaffected
same,IC50,Purified Synaptosomes,210 nM
same,IC50,Synaptosomes,100 nM
same,IC50,[7],140 nM
"CNCCC=C1c2ccccc2CCc2ccccc21 [Nortriptyline, nortriptyline]",IC50,Rabbit Platelets,900 nM
NCC(=O)O [glycine],"Vmax of glycine uptake, L-GLY2","[8]; 50 nM to 5 μM [3H]glycine, 10 min, Lineweaver-Burk",10.19±3.32 pmol/min/mg protein
same,"Vmax, L-GLY2",[8]; Table IV,10.19 ± 3.32 pmol/mg/min
same,"effect of competing ligand on [3H]glycine uptake, L-GLY2","[8]; ligand 100 μM (1000-fold excess), 0.1 μM [3H]glycine, 40 min, 37° C., 1 mM alanine, proline, serine",reduced [^3 H] glycine transport into L-GLY2 cells to the same level as that of L-M cells
same,Km,"[8]; read-out: Km, L-GLY2, Table IV",1.5 ± 0.2 µM
same,Km,"[8]; read-out: apparent Km of glycine uptake, L-GLY2, 50 nM to 5 μM [3H]glycine, 10 min, Lineweaver-Burk",1.5 µM
same,"effect of competing ligand on [3H]glycine uptake, L-M",L-M cells [9],not significantly inhibited
same,ligand-specificity of [3H]GABA uptake by L-GAB1 cells,[1]; competitor at 100-fold excess relative to [3H]GABA,not inhibited
same,Km,"goldfish retina; read-out: Km, goldfish retina",8.08 ± 0.7 µM
same,"Vmax, goldfish retina",goldfish retina,8.71 ± 0.54 pmol/mg/min
same,Km,"monkey retina; read-out: Km, monkey retina",2.5 ± 0.9 µM
same,"Vmax, monkey retina",monkey retina,3.30 ± 1.60 pmol/mg/min
same,Km,frog retina,> 4.7 µM
same,"Vmax, human brain (post-mortem)",[10],55 ± 25 pmol/mg/min
same,Km,"[10]; read-out: Km, human brain (post-mortem)",35 ± 19 µM
same,Km,C6 glioblastoma,100 µM
same,"Vmax, frog brain",frog brain,1.14 ± 0.06 pmol/mg/min
same,Km,"frog brain; read-out: Km, frog brain",24.8 ± 1.4 µM
same,"Vmax, frog spinal cord",frog spinal cord,1.52 ± 0.03 pmol/mg/min
same,Km,"frog spinal cord; read-out: Km, frog spinal cord",29 ± 0.7 µM
same,"Vmax, rat brain",rat brain,0.48 ± 0.07 pmol/mg/min
same,Km,"rat brain; read-out: Km, rat brain",34 ± 1.3 µM
same,"Vmax, rat spinal cord",rat spinal cord,1.43 ± 0.02 pmol/mg/min
same,Km,"rat spinal cord; read-out: Km, rat spinal cord",46.5 ± 1.6 µM
same,"Vmax, chicken brain",chicken brain,0.32 ± 0.01 pmol/mg/min
same,Km,"chicken brain; read-out: Km, chicken brain",37 ± 2 µM
same,"Vmax, chicken spinal cord",chicken spinal cord,0.65 ± 0.02 pmol/mg/min
same,Km,"chicken spinal cord; read-out: Km, chicken spinal cord",41.8 ± 1 µM
same,"Vmax, mouse cerebral cortex",mouse cerebral cortex,340 ± 70 pmol/mg/min
same,Km,"mouse cerebral cortex; read-out: Km, mouse cerebral cortex",15.2 ± 2 µM
same,"Vmax, mouse pons-medulla-spinal cord",[11],3100 ± 100 pmol/mg/min
same,Km,"[11]; read-out: Km, mouse pons-medulla-spinal cord",27.6 ± 2.6 µM
same,"Vmax, Y79 retinoblastoma",Y79 retinoblastoma,138.40 ± 12.40 pmol/mg/min
same,Km,"Y79 retinoblastoma; read-out: Km, Y79 retinoblastoma",24.4 ± 2.6 µM
